According to US20230374017A1, “COMPOSITIONS AND METHODS FOR ACTIVATING PYRUVATE KINASE” (The Regents of the University of Michigan, priority 2020, published 2023):

What was measured:
[1] = target: T1, human recombinant PKM2 (Homo sapiens, UniProt P14618); test: Pyruvate kinase activity enzyme assay, recombinant enzyme (LDH-coupled, NADH depletion at 340 nm); type: biochemical; settings: normalized to DMSO-treated PKM2 activity; for EC50: recombinant PKM2 20 nM; for Emax: read-out: Max Activation
T1 construct: purchased Sigma SAE0021
Experimental: Pyruvate Kinase Activity Enzyme Assay. Recombinant Enzyme. A continuous, enzyme-coupled assay, which uses lactate dehydrogenase (LDH) and measures the depletion of NADH via absorbance at 340 nm was utilized to determine the pyruvate kinase activity. For AC50 measurements (concentration of activator necessary to achieve half-maximal activation) with ML-265, assays were performed in 96-well format using 200 μL/well assay volume with final concentrations of 20 nM human recombinant PKM2 (Sigma, SAE0021), differing concentrations of ML-265, 0.5 mM PEP, 1 mM ADP, 0.2 mM NADH, and 8 U of lactate dehydrogenase (LDH) in an assay buffer of 50 mM Tris-HCl (pH 7.4), 100 mM KCl, and 5 mM MgCl2. The decrease in absorbance at 340 nm was monitored using a SPECTROstar Omega plate reader (BMG LABTECH Inc., Cary, NC, USA). Initial velocities were calculated with the MARS software. Data were normalized to DMSO (dimethyl sulfoxide)-treated PKM2 activity.

[2] = target: T2, pyruvate kinase activity, 661W cell line (Mus musculus, UniProt P52480); test: Pyruvate kinase activity in 661W cell lysates after 2 hours treatment; type: cell-based; settings: 661W cells, 2 hours incubation, activity normalized to total protein; for Emax: read-out: Max Activation (cell)
T2 construct: endogenous in cells; host or cells: 661W cell line
Experimental: Cell culture. For 661W cell line experiments, media was replaced prior to the start of treatment with DMSO or ML-265. Cells were incubated with DMSO or different concentrations of ML-265 for 2 hours. Cells were lysed and homogenized in RIPA Lysis and Extraction Buffer (Catalog number: 89900, Life Technologies Corporation, Grand Island, NY) with protease inhibitors (Complete-Mini, Roche Diagnostics, Indianapolis, IN) and cellular debris was removed by centrifugation at 10,000 rpm for 10 minutes. Ten microliters of the supernatant was used to assess pyruvate kinase activity, and the activity was normalized to total protein content as previously described.

[3] = system: photoreceptors / retina; settings: cited from earlier work

T1 sequence (P14618 whole entry): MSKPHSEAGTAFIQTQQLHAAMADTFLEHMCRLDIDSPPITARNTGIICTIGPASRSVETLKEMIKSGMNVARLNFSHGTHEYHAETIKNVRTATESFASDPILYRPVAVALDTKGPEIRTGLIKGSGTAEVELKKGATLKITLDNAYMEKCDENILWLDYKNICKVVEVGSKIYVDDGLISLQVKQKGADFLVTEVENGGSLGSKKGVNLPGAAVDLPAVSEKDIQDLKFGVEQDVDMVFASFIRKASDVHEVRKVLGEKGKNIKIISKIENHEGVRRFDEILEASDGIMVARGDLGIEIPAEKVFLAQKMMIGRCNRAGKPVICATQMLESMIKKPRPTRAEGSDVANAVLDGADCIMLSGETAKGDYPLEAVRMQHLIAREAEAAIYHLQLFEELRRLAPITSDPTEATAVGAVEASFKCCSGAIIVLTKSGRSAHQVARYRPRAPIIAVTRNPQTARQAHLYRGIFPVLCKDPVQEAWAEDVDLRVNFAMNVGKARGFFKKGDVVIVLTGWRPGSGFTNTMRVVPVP
T2 sequence (P52480 whole entry): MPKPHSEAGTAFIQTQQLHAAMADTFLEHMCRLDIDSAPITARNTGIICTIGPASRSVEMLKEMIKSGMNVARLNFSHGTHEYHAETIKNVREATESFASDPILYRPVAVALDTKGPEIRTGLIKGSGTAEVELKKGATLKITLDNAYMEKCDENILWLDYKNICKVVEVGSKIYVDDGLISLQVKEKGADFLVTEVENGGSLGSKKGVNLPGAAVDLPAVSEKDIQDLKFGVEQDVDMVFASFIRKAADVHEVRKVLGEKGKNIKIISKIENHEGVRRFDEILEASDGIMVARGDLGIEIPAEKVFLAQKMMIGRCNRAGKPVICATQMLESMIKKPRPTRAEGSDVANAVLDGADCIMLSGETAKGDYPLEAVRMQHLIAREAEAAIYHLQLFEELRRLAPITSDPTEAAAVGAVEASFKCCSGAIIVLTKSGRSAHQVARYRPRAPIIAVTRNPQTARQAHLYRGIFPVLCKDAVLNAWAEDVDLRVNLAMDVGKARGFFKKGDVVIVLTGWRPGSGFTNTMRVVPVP

Row | SMILES | EC50 [1] [nM] | Emax ([1]; recombinant PKM2) [%] | EC50 [2] [nM] | Emax [2] [%] | toxic effects on the retina ([3]; long-term) | photoreceptor apoptosis ([3]; small molecule activation of PKM2, models of outer retinal stress) | Max Activation ([1]; recombinant PKM2) [%] | Max Activation (cell) [2] [%]
1 | CSc1ccc2c3cnn(Cc4ccccc4)c(=O)c3n(C)c2c1 [Example 4, 3-Benzyl-5-methyl-7-(methylthio)-3,5-dihydro-4H-pyridazino[4,5-b]indol-4-one] | 527 | 267 | 22 | 309 | – | – | – | –
2 | Cc1cccc(Cn2ncc3c4cc(Oc5ccc6[nH]ncc6n5)ccc4n(C)c3c2=O)n1 [Example 60, 8-((1H-pyrazolo[4,3-b]pyridin-5-yl)oxy)-5-methyl-3-((6-methylpyridin-2-yl)methyl)-3,5-dihydro-4H-pyridazino[4,5-b]indol-4-one] | 67 | 243 | 54 | 334 | – | – | – | –
3 | Cn1c2cc(Oc3ncnc4[nH]ncc34)ccc2c2cnn(Cc3ccccc3F)c(=O)c21 [Example 73, 7-((1H-pyrazolo[3,4-d]pyrimidin-4-yl)oxy)-3-(2-fluorobenzyl)-5-methyl-3,5-dihydro-4H-pyridazino[4,5-b]indol-4-one] | 22 | 232 | 104 | 189 | – | – | – | –
4 | COc1ccc2c3cnn(Cc4cccc(N)c4)c(=O)c3n(C)c2c1 [Example 8, 3-(3-Aminobenzyl)-7-methoxy-5-methyl-3,5-dihydro-4H-pyridazino[4,5-b]indol-4-one] | 117 | 271 | 25 | 324 | – | – | – | –
5 | Cc1cccc(Cn2ncc3c4ccc(Oc5cccc(F)n5)cc4n(C)c3c2=O)n1 [Example 66, 7-((6-fluoropyridin-2-yl)oxy)-5-methyl-3-((6-methylpyridin-2-yl)methyl)-3,5-dihydro-4H-pyridazino[4,5-b]indol-4-one] | 36 | 154 | 121 | 323 | – | – | – | –
6 | Cn1c2cc([S+](C)[O-])ccc2c2cnn(Cc3cccc(N)c3)c(=O)c21 (stereo not drawn) [Example 7, 3-(3-Aminobenzyl)-5-methyl-7-(methylsulfinyl)-3,5-dihydro-4H-pyridazino[4,5-b]indol-4-one] | 63 | 222 | 18 | 355 | – | – | – | –
7 | Cc1cccc(Cn2ncc3c4ccc(Oc5cccc(Cl)n5)cc4n(C)c3c2=O)n1 [Example 67, 7-((6-chloropyridin-2-yl)oxy)-5-methyl-3-((6-methylpyridin-2-yl)methyl)-3,5-dihydro-4H-pyridazino[4,5-b]indol-4-one] | 49 | 277 | 147 | 290 | – | – | – | –
8 | Cn1c2cc(Oc3cccc(Cl)n3)ccc2c2cnn(Cc3cccc(N)c3)c(=O)c21 [Example 78, 3-(3-aminobenzyl)-7-((6-chloropyridin-2-yl)oxy)-5-methyl-3,5-dihydro-4H-pyridazino[4,5-b]indol-4-one] | 35 | 195 | 47 | 247 | – | – | – | –
9 | Cn1c2cc(Oc3cccc(O)n3)ccc2c2cnn(Cc3ccccc3F)c(=O)c21 [Example 72, 3-(2-fluorobenzyl)-7-((6-hydroxypyridin-2-yl)oxy)-5-methyl-3,5-dihydro-4H-pyridazino [4,5-b]indol-4-one] | 55 | 206 | 72 | 222 | – | – | – | –
10 | Cc1cc2c3cnn(Cc4ccccc4F)c(=O)c3n(C)c2s1 [Example 16, 6-(2-Fluorobenzyl)-2,8-dimethyl-6,8-dihydro-7H-thieno[3′,2′:4,5]pyrrolo[2,3-d]pyridazin-7-one] | 40 | 231 | 58 | 279 | – | – | – | –
11 | COc1cccc2c3cnn(Cc4cccc(N)c4)c(=O)c3n(C)c12 [Example 23, 3-(3-aminobenzyl)-6-methoxy-5-methyl-3,5-dihydro-4H-pyridazino[4,5-b]indol-4-one] | 22 | 196 | 33 | 288 | – | – | – | –
12 | Cn1c2cc(Oc3cccc(F)n3)ccc2c2cnn(Cc3cccc4[nH]ncc34)c(=O)c21 [Example 85, 3-((1H-indazol-4-yl)methyl)-7-((6-fluoropyridin-2-yl)oxy)-5-methyl-3,5-dihydro-4H-pyridazino[4,5-b]indol-4-one] | 63 | 330 | 76 | 315 | – | – | – | –
13 | Cn1c2cc([S+](C)[O-])sc2c2cnn(Cc3cccc(N)c3)c(=O)c21 (stereo not drawn) [ML-265] | – | – | – | – | without any toxic effects on the retina long-term | circumvents photoreceptor apoptosis | – | –
14 | Cn1c2cc(O)ccc2c2cnn(Cc3cccc(N)c3)c(=O)c21 [Example 15, 3-(3-Aminobenzyl)-7-hydroxy-5-methyl-3,5-dihydro-4H-pyridazino[4,5-b]indol-4-one] | 40 | 254 | 124 | 296 | – | – | – | –
15 | Cc1cccc(Cn2ncc3c4ccc(Oc5ccc6[nH]ncc6n5)cc4n(C)c3c2=O)n1 [Example 62, 7-((1H-pyrazolo[4,3-b]pyridin-5-yl)oxy)-5-methyl-3-((6-methylpyridin-2-yl)methyl)-3,5-dihydro-4H-pyridazino[4,5-b]indol-4-one] | 82 | 221 | 134 | 376 | – | – | – | –
16 | COc1cc2c(cc1F)c1cnn(Cc3cccc(N)c3)c(=O)c1n2C [Example 53, 3-(3-aminobenzyl)-8-fluoro-7-methoxy-5-methyl-3,5-dihydro-4H-pyridazino[4,5-b]indol-4-one] | 15 | – | 37 | – | – | – | 199 | 229
17 | Cn1ncc2c3ccc(Oc4cccc(Cl)n4)cc3n(C)c2c1=O [Example 81, 7-((6-chloropyridin-2-yl)oxy)-3,5-dimethyl-3,5-dihydro-4H-pyridazino[4,5-b]indol-4-one] | 49 | 336 | 259 | 259 | – | – | – | –
